Test results: patent publication US20100119454A1, “Use of the conserved Drosophila NPFR1 system for uncovering interacting genes and pathways important in nociception and stress response” (priority 2008, published 2010)

Tested on: Drosophila adult flies
Experiment: Two-choice preference test of adult flies (BITC)
Format: in vivo, Drosophila melanogaster
Conditions: 0.4 mM BITC, 2-day old control flies
Protocol: The two-choice preference test was based on a published procedure with some modifications (Al-Anzi et al., 2006), which is hereby incorporated by reference herein in its entirety. 2-day-old males withheld from food for 24 hr were presented with a 48-well plate containing two-colored food media in the alternating well rows. They contain 1% agar/10% fructose with 0.4 mM benzyl-isothiocyanate (BITC) in 75% ethanol or ethanol only. In each assay, 90-100 flies per line were tested in the dark. A preference index was defined as the fraction of […] choosing the BITC medium, minus the fraction of […] choosing the BITC-free medium. […] At least three trials were done for each line.

## S=C=NCc1ccccc1 [BITC, benzyl-isothiocyanate]
  food choice of adult flies: mostly avoided
